{"source": "patent US12344597B2", "about": "“Alkoxy-substituted pyridinyl derivatives as LPA1 receptor antagonists and their use in the treatment of fibrosis” (IDORSIA PHARMACEUTICALS LTD, priority 2018, dated 2025)", "note": "pIC50: −log10 of the molar value."}
{"target": "human LPA1 receptor (Homo sapiens (Human), UniProt Q92633)", "sequence (Q92633 whole entry, the tested form may be a part)": "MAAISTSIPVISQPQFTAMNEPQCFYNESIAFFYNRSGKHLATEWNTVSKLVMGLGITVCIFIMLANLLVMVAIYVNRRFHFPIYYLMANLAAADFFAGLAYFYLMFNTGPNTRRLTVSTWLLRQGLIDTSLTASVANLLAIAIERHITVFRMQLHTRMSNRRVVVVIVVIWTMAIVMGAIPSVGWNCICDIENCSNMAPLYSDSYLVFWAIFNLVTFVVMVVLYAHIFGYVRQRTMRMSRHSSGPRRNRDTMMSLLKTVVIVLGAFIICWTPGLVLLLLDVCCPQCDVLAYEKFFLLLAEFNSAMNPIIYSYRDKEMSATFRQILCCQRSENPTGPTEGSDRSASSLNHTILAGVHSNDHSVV", "experiment": "Beta-arrestin recruitment assay to determine IC50 values for human LPAR1", "format": "cell-based", "settings": "antagonist mode, Tango EDG2-bla U2OS cells, LPA 18:1 500 nM final", "method_in_brief": "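Tango EDG2-bla U2OS cells: LPA-driven beta-arrestin/TEV protease recruitment releases Gal4-VP16, inducing beta-lactamase reporter read with live-cell substrate. Cells seeded 20 h at 37 °C beforehand. IC50 is antagonist concentration inhibiting 50% of maximal response.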"}
{"smiles": "COC(=O)c1cc(CN2CC(C(=O)Nc3ccc(C)nc3OC(F)F)(c3ccccc3C(C)C)C2)ccn1", "note": "[Ex 11-50, methyl 4-((3-((2-(difluoromethoxy)-6-methylpyridin-3-yl)carbamoyl)-3-(2-isopropylphenyl)azetidin-1-yl)methyl)picolinate]", "pIC50": 7.33}
{"smiles": "Cc1ccc(NC(=O)C2(c3ccccc3C(C)C)CN(C(=O)CC3(N)COC3)C2)c(OC(F)F)n1", "note": "[Ex 12-38, 1-(2-(3-aminooxetan-3-yl)acetyl)-N-(2-(difluoromethoxy)-6-methylpyridin-3-yl)-3-(2-isopropylphenyl)azetidine-3-carboxamide]", "pIC50": 7.60}
{"smiles": "Cc1ccc(NC(=O)C2(c3ccccc3C(C)C)CN(C(=O)CNCC3(C(=O)O)CC3)C2)c(OC(F)F)n1", "note": "[Ex 46, 1-(((2-(3-((2-(difluoromethoxy)-6-methylpyridin-3-yl)carbamoyl)-3-(2-isopropylphenyl)azetidin-1-yl)-2-oxoethyl)amino)methyl)cyclopropane-1-carboxylic acid]", "pIC50": 7.00}
{"smiles": "CCOC(=O)C[C@@H](CC(=O)N1CC(C(=O)Nc2ccc(C)nc2OC(F)F)(c2ccccc2C(C)C)C1)OC(C)=O", "note": "[Ex 12-104, ethyl (R)-3-acetoxy-5-(3-((2-(difluoromethoxy)-6-methylpyridin-3-yl)carbamoyl)-3-(2-isopropylphenyl)azetidin-1-yl)-5-oxopentanoate]", "pIC50": 7.39}
{"smiles": "COC(=O)c1cnc(N2CC(C(=O)Nc3ccc(C)nc3OC(F)F)(c3ccccc3C(C)C)C2)cn1", "note": "[Ex 18-8, methyl 5-(3-((2-(difluoromethoxy)-6-methylpyridin-3-yl)carbamoyl)-3-(2-isopropylphenyl)azetidin-1-yl)pyrazine-2-carboxylate]", "pIC50": 8.00}
{"smiles": "Cc1ccc(NC(=O)C2(c3ccccc3C(C)C)CN(C(=O)N3CCNCC3)C2)c(OC(F)F)n1", "note": "[Ex 17-25, N-(2-(difluoromethoxy)-6-methylpyridin-3-yl)-3-(2-isopropylphenyl)-1-(piperazine-1-carbonyl)azetidine-3-carboxamide]", "pIC50": 6.57}
{"smiles": "Cc1ccc(NC(=O)C2(c3ccccc3C(C)C)CN(C(=O)C[C@H](O)C(=O)O)C2)c(OC(F)F)n1", "note": "[Ex 12-34, (S)-4-(3-((2-(difluoromethoxy)-6-methylpyridin-3-yl)carbamoyl)-3-(2-isopropylphenyl)azetidin-1-yl)-2-hydroxy-4-oxobutanoic acid]", "pIC50": 7.48}
{"smiles": "Cc1cnc(NC(=O)C2(c3ccccc3C(C)C)CN(C3=NC(=O)CO3)C2)c(OC(F)F)c1", "note": "[Ex 84, N-(3-(difluoromethoxy)-5-methylpyridin-2-yl)-3-(2-isopropylphenyl)-1-(4-oxo-4,5-dihydrooxazol-2-yl)azetidine-3-carboxamide]", "pIC50": 6.51}
{"smiles": "COCCN1CCC(CC(=O)N2CC(C(=O)Nc3ccc(C)nc3OC(F)F)(c3ccccc3C(C)C)C2)CC1", "note": "[Ex 12-139, N-(2-(difluoromethoxy)-6-methylpyridin-3-yl)-3-(2-isopropylphenyl)-1-(2-(1-(2-methoxyethyl)piperidin-4-yl)acetyl)azetidine-3-carboxamide]", "pIC50": 6.78}
{"smiles": "Cc1ccc(NC(=O)C2(c3ccccc3C3CC3)CNC2)c(OC(F)F)n1", "note": "[Ex 23, 3-(2-cyclopropylphenyl)-N-(2-(difluoromethoxy)-6-methylpyridin-3-yl)azetidine-3-carboxamide]", "pIC50": 6.18}
{"smiles": "COC(=O)C1(COC(=O)N2CC(C(=O)Nc3ccc(C)nc3OC(F)F)(c3ccccc3C(C)C)C2)COC1", "note": "[Ex 14-13, (3-(methoxycarbonyl)oxetan-3-yl)methyl 3-((2-(difluoromethoxy)-6-methylpyridin-3-yl)carbamoyl)-3-(2-isopropylphenyl)azetidine-1-carboxylate]", "pIC50": 7.54}
{"smiles": "CCOC(=O)CNCCN1CC(C(=O)Nc2ccc(C)nc2OC(F)F)(c2ccccc2C(C)C)C1", "note": "[Ex 11-79, Ethyl (2-(3-((2-(difluoromethoxy)-6-methylpyridin-3-yl)carbamoyl)-3-(2-isopropylphenyl)azetidin-1-yl)ethyl)glycinate]", "pIC50": 7.72}
{"smiles": "Cc1ccc(NC(=O)C2(c3ccccc3C(C)C)CN(C(=O)C[C@@H](O)C(=O)O)C2)c(OC(F)F)n1", "note": "[Ex 12-35, (R)-4-(3-((2-(difluoromethoxy)-6-methylpyridin-3-yl)carbamoyl)-3-(2-isopropylphenyl)azetidin-1-yl)-2-hydroxy-4-oxobutanoic acid]", "pIC50": 7.39}
{"smiles": "Cc1ccc(NC(=O)C2(c3ncccc3C(C)C)CN(C(=O)CCC(=O)O)C2)c(OC(F)F)n1", "note": "[Ex 61, 4-(3-((2-(difluoromethoxy)-6-methylpyridin-3-yl)carbamoyl)-3-(3-isopropylpyridin-2-yl)azetidin-1-yl)-4-oxobutanoic acid]", "pIC50": 7.15}
{"smiles": "Cc1ccc(NC(=O)C2(c3ccccc3C(C)C)CN(c3ccc(C#N)cn3)C2)c(OC(F)F)n1", "note": "[Ex 18-22, 1-(5-cyanopyridin-2-yl)-N-(2-(difluoromethoxy)-6-methylpyridin-3-yl)-3-(2-isopropylphenyl)azetidine-3-carboxamide]", "pIC50": 9.00}
{"smiles": "Cc1ccc(NC(=O)C2(c3ccccc3C(C)C)CN(C(=O)CCCc3nnn[nH]3)C2)c(OC(F)F)n1", "note": "[Ex 12-30, 1-(4-(1H-tetrazol-5-yl)butanoyl)-N-(2-(difluoromethoxy)-6-methylpyridin-3-yl)-3-(2-isopropylphenyl)azetidine-3-carboxamide]", "pIC50": 7.60}
{"smiles": "Cc1ccc(NC(=O)C2(c3ccccc3C(C)C)CN(Cc3ccc(C(=O)O)[nH]3)C2)c(OC(F)F)n1", "note": "[Ex 11-44, 5-((3-((2-(difluoromethoxy)-6-methylpyridin-3-yl)carbamoyl)-3-(2-isopropylphenyl)azetidin-1-yl)methyl)-1H-pyrrole-2-carboxylic acid]", "pIC50": 8.30}
{"smiles": "Cc1ccc(NC(=O)C2(c3ccccc3C(C)C)CN(S(=O)(=O)/C=C/C(=O)O)C2)c(OC(F)F)n1", "note": "[Ex 13-21, (E)-3-((3-((2-(difluoromethoxy)-6-methylpyridin-3-yl)carbamoyl)-3-(2-isopropylphenyl)azetidin-1-yl)sulfonyl)acrylic acid]", "pIC50": 7.85}
{"smiles": "Cc1ccc(NC(=O)C2(c3c(F)cccc3C(C)C)CN(C(=O)CC(C)(C)C(=O)O)C2)c(OC(F)F)n1", "note": "[Ex 39-4, 4-(3-((2-(difluoromethoxy)-6-methylpyridin-3-yl)carbamoyl)-3-(2-fluoro-6-isopropylphenyl)azetidin-1-yl)-2,2-dimethyl-4-oxobutanoic acid]", "pIC50": 8.30}
{"smiles": "Cc1ccc(NC(=O)C2(c3ccccc3C(C)C)CCN(CCO)CC2)c(OC(F)F)n1", "note": "[Ex 11-3, N-(2-(difluoromethoxy)-6-methylpyridin-3-yl)-1-(2-hydroxyethyl)-4-(2-isopropylphenyl)piperidine-4-carboxamide]", "pIC50": 7.49}
{"smiles": "COC(=O)CCS(=O)(=O)N1CCC(C(=O)Nc2ccc(C)nc2OC(F)F)(c2ccccc2C(C)C)CC1", "note": "[Ex 13-6, methyl 3-((4-((2-(difluoromethoxy)-6-methylpyridin-3-yl)carbamoyl)-4-(2-isopropylphenyl)piperidin-1-yl)sulfonyl)propanoate]", "pIC50": 7.59}
{"smiles": "Cc1ccc(NC(=O)C2(c3ccccc3C(C)C)CN(CC3COC3)C2)c(OC(F)F)n1", "note": "[Ex 11-5, N-(2-(difluoromethoxy)-6-methylpyridin-3-yl)-3-(2-isopropylphenyl)-1-(oxetan-3-ylmethyl)azetidine-3-carboxamide]", "pIC50": 7.54}
{"smiles": "Cc1ccc(NC(=O)C2(c3ccccc3C(C)C)CN(S(=O)(=O)NCCF)C2)c(OC(F)F)n1", "note": "[Ex 15-4, N-(2-(difluoromethoxy)-6-methylpyridin-3-yl)-1-(N-(2-fluoroethyl)sulfamoyl)-3-(2-isopropylphenyl)azetidine-3-carboxamide]", "pIC50": 7.82}
